Experimental findings from patent US8802865B2 (Janssen Pharmaceutica, NV, priority 2006, dated 2014) are described below.

One test has as its system ventral prostate. In words: Ventral Prostate Weight in vivo Assay (inhibition of testosterone-enhanced tissue weight). Also noted: key: “active” in the Table below if the non weight adjusted prostate weight was ≦40 mg or the % Inhibition prostate weight, body weight adjusted was ≧40% @ 2 mg/day dosage; listed herein as “inactive” as they did not meet the specified criteria defined above. Particulars: castrated male Sprague Dawley rats, test compound usually orally once daily with testosterone propionate s.c.; ventral prostate wet weight; criteria at 2 mg/day dosage. The procedure: (§1) Ventral Prostate and Levator Ani Weight in vivo Assay
(§2) Immature (approximately 50 g) castrated male Sprague Dawley rats (Charles River) were treated once daily for five days with test compound (usually given orally at 40 mg/kg in a volume of 0.3 mL, in 30% cyclodextrin or 0.5% methylcellulose vehicle) and with testosterone propionate (given subcutaneously by injection at the nape of the neck at 2 mg/kg, in a volume of 0.1 mL in sesame oil). On the sixth day, the rats were euthanized by asphyxiation in carbon dioxide. Ventral prostates and levator ani were removed and their wet weights determined. Test compound activity was determined as the percent inhibition of testosterone-enhanced tissue weights, with a vehicle-treated control group set to zero percent and a testosterone alone-treated control group set to 100%.
(§3) Mature (150- to 200-g) castrated male Sprague Dawley rats (Charles River) are similarly tested according to the procedure described above. The rats were dosed for two weeks, with 0.4 mg/kg testosterone propionate used as the positive control.
(§4) Representative compounds of the present invention were tested according to the procedure described above, with results as listed in Table 3 below. For effect on prostate—i.e. an antagonist—a test compound is listed as “active” in the Table below if the non weight adjusted prostate weight was ≦40 mg or the % Inhibition prostate weight, body weight adjusted was ≧40% @ 2 mg/day dosage. For effect on levator ani—i.e. an agonist—a test compound is listed as “active” in the Table below if the non weight adjusted levator ani weight was ≧40 mg or the % Stimulation levator ani weight, body weight adjusted was ≧40% at 2 mg/day dosage.

The subject of test [1] is levator ani. Nature of the test: Levator Ani Weight in vivo Assay (stimulation of levator ani weight). The following applies: castrated male Sprague Dawley rats, test compound usually orally once daily with testosterone propionate s.c.; levator ani wet weight; criteria at 2 mg/day dosage. Also noted: key: “active” in the Table below if the non weight adjusted levator ani weight was ≧40 mg or the % Stimulation levator ani weight, body weight adjusted was ≧40% at 2 mg/day dosage; listed herein as “inactive” as they did not meet the specified criteria defined above. As to the method: as §1, §2, §3, §4

In test [2] the test system is levator ani. Described as above. The arrangement: key: “active” in the Table below if the non weight adjusted prostate weight was ≦40 mg or the % Inhibition prostate weight, body weight adjusted was ≧40% @ 2 mg/day dosage; listed herein as “inactive” as they did not meet the specified criteria defined above. The following applies: castrated male Sprague Dawley rats, test compound usually orally once daily with testosterone propionate s.c.; levator ani wet weight; criteria at 2 mg/day dosage. As to the method: as §1, §2, §3, §4

Turning to `C=C=CC(O)(c1nc2cc(Cl)c(Cl)cc2[nH]1)C(F)(F)F` (centres unmarked) [Compound 3, 2-(5,6-Dichloro-1H-benzoimidazol-2-yl)-1,1,1-trifluoro-penta-3,4-dien-2-ol], the Prostate antagonist result with ventral prostate was “active”. Also, in the test with levator ani [1], the L.A. agonist entry is given as “active”.

Consider `C/C=C\C(O)(c1nc2cc(Cl)c(Cl)cc2[nH]1)C(F)(F)F` (stereo not drawn) [Compound 15, 2-(5,6-Dichloro-1H-benzoimidazol-2-yl)-1,1,1-trifluoro-cis-pent-3-en-2-ol], for which the Prostate antagonist result in the test on ventral prostate is given as “active”. The L.A. agonist result in the test with levator ani [1] is given as “active”.

`C=CCC(O)(c1nc2cc(C#N)c(C(F)(F)F)cc2[nH]1)C(F)(F)F` (centres unmarked) [Compound 38, 2-(1-Hydroxy-1-trifluoromethyl-but-3-enyl)-6-trifluoromethyl-1H-benzoimidazole-5-carbonitrile]: the Prostate antagonist entry in the test with ventral prostate was “active”. Moreover, the L.A. agonist entry in the test with levator ani [1] is reported as “active”.

For the compound `C#CCC(O)(c1nc2cc(Cl)c(Cl)cc2n1C)C(F)(F)F` (single isomer, unassigned; (-)) [Compound 37, (−)-Enantiomer of 2-(5,6-Dichloro-1-methyl-1H-benzoimidazol-2-yl)-1,1,1-trifluoro-pent-4-yn-2-ol], the Prostate antagonist result in the test on ventral prostate was “inactive”. Further, in the test on levator ani [1], the L.A. agonist result is reported as “active”.

Take `C=CC(O)(c1nc2cc(Cl)c(Cl)cc2[nH]1)C(F)(F)F` (single isomer, unassigned; (+)) [Compound 43, (+)-2-(5,6-dichloro-1H-benzoimidazol-2-yl)-1,1,1-trifluoro-but-3-en-2-ol]: in the test with ventral prostate, the Prostate antagonist result is “inactive”. Further, in the test on levator ani [1], the L.A. agonist entry is “active”.

For `C=CC(O)(c1nc2cc(Cl)c(Cl)cc2[nH]1)C(F)(F)F` (centres unmarked) [Compound 4, 2-(5,6-Dichloro-1H-benzoimidazol-2-yl)-1,1,1-trifluoro-but-3-en-2-ol], in the test with ventral prostate, the Prostate antagonist entry was “active”. For the same compound, the L.A. agonist result in the test with levator ani [1] is “active”.

For `FC(F)(F)C1(c2nc3cc(Cl)c(Cl)cc3[nH]2)C=CCO1` (centres unmarked) [Compound 45, 5,6-Dichloro-2-(2-trifluoromethyl-2,5-dihydro-furan-2-yl)-1H-benzoimidazole], in the test with ventral prostate, the Prostate antagonist entry was “inactive”. Further, the L.A. agonist result in the test with levator ani [1] is reported as “active”.

Turning to `FC(F)(F)C1(c2nc3cc(Cl)c(Cl)cc3[nH]2)CCCO1` (centres unmarked) [Compound 46, 5,6-Dichloro-2-(2-trifluoromethyl-tetrahydro-furan-2-yl)-1H-benzoimidazole], in the test with ventral prostate, the Prostate antagonist result is “active”. Also, in the test with levator ani [1], the L.A. agonist result was “active”.

Consider `FC(F)(F)C1(c2nc3cc(Cl)c(Cl)cc3[nH]2)NCCO1` (centres unmarked) [Compound 61, 5,6-Dichloro-2-(2-trifluoromethyl-oxazolidin-2-yl)-1H-benzimidazole], for which the Prostate antagonist result with ventral prostate was “active”. Moreover, the L.A. agonist entry with levator ani [2] was “inactive”.

`C=C=CC(O)(c1nc2cc(Cl)c(Cl)cc2[nH]1)C(F)(F)F` (single isomer, unassigned; (+)) [Compound 31, (+)-Enantiomer of 2-(5,6-Dichloro-1H-benzoimidazol-2-yl)-1,1,1-trifluoro-penta-3,4-dien-2-ol]: the Prostate antagonist result with ventral prostate is listed as “active”. The L.A. agonist result with levator ani [1] is “active”.

As for `OCC1COC(c2nc3cc(Cl)c(Cl)cc3[nH]2)(C(F)(F)F)O1` (centres unmarked) [Compound 49, [2-(5,6-Dichloro-1H-benzoimidazol-2-yl)-2-trifluoromethyl-[1,3]dioxolan-4-yl]-methanol], the Prostate antagonist entry with ventral prostate is on record as “active”. In the test on levator ani [2], the L.A. agonist result was “inactive”.

Regarding `C=CC(c1ccccc1)C(O)(c1nc2cc(Cl)c(Cl)cc2[nH]1)C(F)(F)F` (centres unmarked) [Compound 28, 2-(5,6-Dichloro-1H-benzoimidazol-2-yl)-1,1,1-trifluoro-3-phenyl-pent-4-en-2-ol], the Prostate antagonist result in the test with ventral prostate is on record as “active”. The L.A. agonist result with levator ani [2] is “inactive”.

As to `C=CCC(O)(c1nc2cc(Cl)c(Cl)cc2[nH]1)C(F)(F)F` (single isomer, unassigned; (-)) [Compound 24, (−)-Enantiomer of 2-(5,6-Dichloro-1H-benzoimidazol-2-yl)-1,1,1-trifluoro-pent-4-en-2-ol], the Prostate antagonist entry with ventral prostate is reported as “active”. Besides, in the test with levator ani [2], the L.A. agonist result is “inactive”.

Turning to `N#CCC(O)(c1nc2cc(Cl)c(Cl)cc2[nH]1)C(F)(F)F` (centres unmarked) [Compound 7, 3-(5,6-Dichloro-1H-benzoimidazol-2-yl)-4,4,4-trifluoro-3-hydroxy-butyronitrile], the Prostate antagonist result with ventral prostate is “inactive”. Besides, in the test on levator ani [1], the L.A. agonist result is listed as “active”.

Turning to `C=C(C)CC(O)(c1nc2cc(Cl)c(Cl)cc2[nH]1)C(F)(F)F` (centres unmarked) [Compound 13, 2-(5,6-Dichloro-1H-benzoimidazol-2-yl)-1,1,1-trifluoro-4-methyl-pent-4-en-2-ol], in the test on ventral prostate, the Prostate antagonist entry is recorded as “active”. Moreover, the L.A. agonist entry with levator ani [2] is “inactive”.

Turning to `C#CCC(O)(c1nc2cc(Cl)c(Cl)cc2[nH]1)C(F)(F)F` (centres unmarked) [Compound 2, 2-(5,6-Dichloro-1H-benzoimidazol-2-yl)-1,1,1-trifluoro-pent-4-yn-2-ol], the Prostate antagonist result with ventral prostate is recorded as “active”. The L.A. agonist result in the test on levator ani [1] is on record as “active”.

With `C=C=CC(O)(c1nc2cc(Cl)c(Cl)cc2[nH]1)C(F)(F)F` (single isomer, unassigned; (-)) [Compound 32, (−)-Enantiomer of 2-(5,6-Dichloro-1H-benzoimidazol-2-yl)-1,1,1-trifluoro-penta-3,4-dien-2-ol], in the test with ventral prostate, the Prostate antagonist entry is “active”. Moreover, the L.A. agonist entry with levator ani [2] was “inactive”.

As for `C/C=C/C(O)(c1nc2cc(Cl)c(Cl)cc2[nH]1)C(F)(F)F` (stereo not drawn) [Compound 16, 2-(5,6-Dichloro-1H-benzoimidazol-2-yl)-1,1,1-trifluoro-trans-pent-3-en-2-ol], the Prostate antagonist result in the test on ventral prostate was “active”. Moreover, the L.A. agonist entry in the test on levator ani [2] was “inactive”.

Consider `C=C=C(C)C(O)(c1nc2cc(Cl)c(Cl)cc2[nH]1)C(F)(F)F` (centres unmarked) [Compound 6, 2-(5,6-Dichloro-1H-benzoimidazol-2-yl)-1,1,1-trifluoro-3-methyl-pent-3,4-dien-2-ol], for which the Prostate antagonist result with ventral prostate is “active”. Also, the L.A. agonist entry in the test with levator ani [2] was “inactive”.
